Reference: article PMC6268188, “Comparative Studies of the (Anti) Mutagenicity of Baccharis dracunculifolia and Artepillin C by the Bacterial Reverse Mutation Test” (Molecules, 2012)
Where two headings read alike, the source gives them in different places.

Legend:
[1] = tested on: mouse micronucleus and comet; parameters: method as in PMID 21259290; settings: mouse micronucleus and comet assays; cited from earlier work

## CC(C)=CCc1cc(/C=C/C(=O)O)cc(CC=C(C)C)c1O [ArtC, 3-{4-hydroxy-3,5-di(3-methyl-2-butenyl)phenyl}-2(E)-propenoic acid]
[1]
  genotoxic potential: not genotoxic
S. typhimurium TA97a; 0.69 µg/plate, TA 97, + S9
  MI (mutagenicity index): 1.2
  Number of revertants (M ± SD)/ plate: 194 ± 3 revertants/plate
S. typhimurium TA97a; 0.69 µg/plate, TA 97, − S9
  MI (mutagenicity index): 1.4
  Number of revertants (M ± SD)/ plate: 207 ± 3 revertants/plate
S. typhimurium TA97a; 1.37 µg/plate, TA 97, + S9
  MI (mutagenicity index): 1.1
  Number of revertants (M ± SD)/ plate: 174 ± 1 revertants/plate
S. typhimurium TA97a; 1.37 µg/plate, TA 97, − S9
  MI (mutagenicity index): 1.5
  Number of revertants (M ± SD)/ plate: 221 ± 6 revertants/plate
S. typhimurium TA97a; 2.75 µg/plate, TA 97, + S9
  MI (mutagenicity index): 1.1
  Number of revertants (M ± SD)/ plate: 175 ± 4 revertants/plate
S. typhimurium TA97a; 2.75 µg/plate, TA 97, − S9
  MI (mutagenicity index): 1.6
  Number of revertants (M ± SD)/ plate: 246 ± 5 revertants/plate
S. typhimurium TA97a; 5.49 µg/plate, TA 97, + S9
  MI (mutagenicity index): 1.1
  Number of revertants (M ± SD)/ plate: 175 ± 1 revertants/plate
S. typhimurium TA97a; 5.49 µg/plate, TA 97, − S9
  MI (mutagenicity index): 1.4
  Number of revertants (M ± SD)/ plate: 207 ± 5 revertants/plate
